From patent US7754880B2, “Uracils having a herbicidal activity” (Isagro Ricerca S.r.l., priority 2002, dated 2010)

Tests used:
Portulaca oleracea [1] = test: Herbicidal activity in pre-emergence; type: in vivo; conditions: dosage of 15 g/ha, fifteen days after the treatment, damage vs non-treated plants
Experimental: (§1) Determination of the Herbicidal Activity and Phytotoxicity in Pre-Emergence The herbicidal activity of the compounds of the invention in pre-emergence was evaluated according to the following operative procedures. The vegetable species of interest (weeds or crops) were sown in pots with an upper diameter of 10 cm, a height of 10 cm and containing sandy soil. 10 pots were used for each vegetable species. Water was added to each pot in such a quantity as to germinate the seeds. The pots were divided into two groups, each containing 5 pots for each weed or crop. After one day from the sowing, the first set of pots was treated with a hydro-acetonic dispersion containing acetone at 10% in volume, the product under evaluation at the desired concentration and Tween 20 at 0.5%. The second set was treated with a hydro-acetonic solution only, containing acetone at 10% in volume and Tween 20 at 0.5%, and was used as comparison (blank). All pots were kept under observation in a conditioned environment under the following conditions: temperature: 24° C.; relative humidity: 60%; photoperiod: 16 ore; light intensity: 10000 lux. The pots were uniformly watered in order to ensure a sufficient humidity degree for a good development of the plants.

Convolvulus sepium [2] = test: Herbicidal activity in pre-emergence; type: in vivo; conditions: dosage of 15 g/ha, fifteen days after the treatment, damage vs non-treated plants
Experimental: as §1

Abutilon theofrasti [3] = test: Herbicidal activity in pre-emergence; type: in vivo; conditions: dosage of 15 g/ha, fifteen days after the treatment, damage vs non-treated plants
Experimental: as §1

Sida spinosa [4] = test: Herbicidal activity in pre-emergence; type: in vivo; conditions: dosage of 15 g/ha, fifteen days after the treatment, damage vs non-treated plants
Experimental: as §1

Chenopodium album [5] = test: Herbicidal activity in pre-emergence; type: in vivo; conditions: dosage of 15 g/ha, fifteen days after the treatment, damage vs non-treated plants
Experimental: as §1

Ipomea purpurea [6] = test: Herbicidal activity in pre-emergence; type: in vivo; conditions: dosage of 15 g/ha, fifteen days after the treatment, damage vs non-treated plants
Experimental: as §1

Amaranthus retroflexus [7] = test: Herbicidal activity in pre-emergence; type: in vivo; conditions: dosage of 15 g/ha, fifteen days after the treatment, damage vs non-treated plants
Experimental: as §1

Galium aparine [8] = test: Herbicidal activity in pre-emergence; type: in vivo; conditions: dosage of 15 g/ha, fifteen days after the treatment, damage vs non-treated plants
Experimental: as §1

Solanum nigrum [9] = test: Herbicidal activity in pre-emergence; type: in vivo; conditions: dosage of 15 g/ha, fifteen days after the treatment, damage vs non-treated plants
Experimental: as §1

Portulaca oleracea [10] = test: Herbicidal activity in post-emergence; type: in vivo; conditions: dosage of 15 g/ha, fifteen days after the treatment, damage vs non-treated plants
Experimental: (§2) Determination of the Herbicidal Activity and Phytotoxicity in Post-Emergence The herbicidal activity of the compounds of the invention in post-emergence was evaluated according to the following operative procedures. The vegetable species of interest (weeds or crops) were sown in pots with an upper diameter of 10 cm, a height of 10 cm and containing sandy soil. 10 pots were used for each vegetable species. Water was added to each pot in such a quantity as to germinate the seeds. The pots were divided into two groups, each containing 5 pots for each weed or crop. Fifteen days after sowing (ten, in the case of wheat), when the weeds and crops, according to the species, were 10-15 cm high, the first set of pots was treated with a hydro-acetonic dispersion containing acetone at 10% in volume, the product under evaluation at the desired concentration and Tween 20 at 0.5%. The second set was treated with a hydro-acetonic solution only, containing acetone at 10% in volume and Tween 20 at 0.5%, and was used as comparison (blank). All pots were kept under observation in a conditioned environment under the following conditions: temperature: 24° C.; relative humidity: 60%; photo-period: 16 ore; light intensity: 10000 lux. The pots were uniformly watered every other day so as to ensure a humidity degree sufficient for a good development of the plants.

Convolvulus sepium [11] = test: Herbicidal activity in post-emergence; type: in vivo; conditions: dosage of 15 g/ha, fifteen days after the treatment, damage vs non-treated plants
Experimental: as §2

Abutilon theofrasti [12] = test: Herbicidal activity in post-emergence; type: in vivo; conditions: dosage of 15 g/ha, fifteen days after the treatment, damage vs non-treated plants
Experimental: as §2

Sida spinosa [13] = test: Herbicidal activity in post-emergence; type: in vivo; conditions: dosage of 15 g/ha, fifteen days after the treatment, damage vs non-treated plants
Experimental: as §2

Chenopodium album [14] = test: Herbicidal activity in post-emergence; type: in vivo; conditions: dosage of 15 g/ha, fifteen days after the treatment, damage vs non-treated plants
Experimental: as §2

Ipomea purpurea [15] = test: Herbicidal activity in post-emergence; type: in vivo; conditions: dosage of 15 g/ha, fifteen days after the treatment, damage vs non-treated plants
Experimental: as §2

Amaranthus retroflexus [16] = test: Herbicidal activity in post-emergence; type: in vivo; conditions: dosage of 15 g/ha, fifteen days after the treatment, damage vs non-treated plants
Experimental: as §2

Galium aparine [17] = test: Herbicidal activity in post-emergence; type: in vivo; conditions: dosage of 15 g/ha, fifteen days after the treatment, damage vs non-treated plants
Experimental: as §2

Solanum nigrum [18] = test: Herbicidal activity in post-emergence; type: in vivo; conditions: dosage of 15 g/ha, fifteen days after the treatment, damage vs non-treated plants
Experimental: as §2

| Structure (SMILES) | Herbicidal activity in pre-emergence, PO (Portulaca oleracea [1]) | Herbicidal activity in pre-emergence, CS (Convolvulus sepium [2]) | Herbicidal activity in pre-emergence, AT (Abutilon theofrasti [3]) | Herbicidal activity in pre-emergence, SS (Sida spinosa [4]) | Herbicidal activity in pre-emergence, CA (Chenopodium album [5]) | Herbicidal activity in pre-emergence, IP (Ipomea purpurea [6]) | Herbicidal activity in pre-emergence, AR (Amaranthus retroflexus [7]) | Herbicidal activity in pre-emergence, GA (Galium aparine [8]) | Herbicidal activity in pre-emergence, SN (Solanum nigrum [9]) | Herbicidal activity in post-emergence, PO (Portulaca oleracea [10]) | Herbicidal activity in post-emergence, CS (Convolvulus sepium [11]) | Herbicidal activity in post-emergence, AT (Abutilon theofrasti [12]) | Herbicidal activity in post-emergence, SS (Sida spinosa [13]) | Herbicidal activity in post-emergence, CA (Chenopodium album [14]) | Herbicidal activity in post-emergence, IP (Ipomea purpurea [15]) | Herbicidal activity in post-emergence, AR (Amaranthus retroflexus [16]) | Herbicidal activity in post-emergence, GA (Galium aparine [17]) | Herbicidal activity in post-emergence, SN (Solanum nigrum [18]) | melting point [°C] |
| --- | --- | --- | --- | --- | --- | --- | --- | --- | --- | --- | --- | --- | --- | --- | --- | --- | --- | --- | --- |
| COC(=O)/C=C(\COc1cc(-n2c(=O)cc(C(F)(F)F)n(C)c2=O)c(F)cc1Cl)OC [Compound No 2, methyl (2E)-4-{2-chloro-4-fluoro-5-[1,2,3,6-tetrahydro-3-methyl-2,6-dioxo-4-(trifluoromethyl)pyrimidin-1-yl]phenoxy}-3-methoxybut-2-enoate] | 5 (5=91% damage—death of the plant) | 5 (5=91% damage—death of the plant) | 5 (5=91% damage—death of the plant) | 5 (5=91% damage—death of the plant) | 5 (5=91% damage—death of the plant) | 5 (5=91% damage—death of the plant) | 5 (5=91% damage—death of the plant) | 5 (5=91% damage—death of the plant) | 5 (5=91% damage—death of the plant) | 4 (4=71-90% damage) | 5 (5=91% damage—death of the plant) | 5 (5=91% damage—death of the plant) | 5 (5=91% damage—death of the plant) | 5 (5=91% damage—death of the plant) | 5 (5=91% damage—death of the plant) | 5 (5=91% damage—death of the plant) | 5 (5=91% damage—death of the plant) | 5 (5=91% damage—death of the plant) |  |
| Cn1nnc(-c2cc(-n3c(=O)cc(C(F)(F)F)n(C)c3=O)ccc2Cl)n1 [Compound No 13, 3-[4-chloro-3-(2-methyl-2H-tetrazol-5-yl)phenyl]-1-methyl-6-(trifluoromethyl)-2,4(1H,3H)-pyrimidinedione] | 5 (5=91% damage—death of the plant) |  | 5 (5=91% damage—death of the plant) | 5 (5=91% damage—death of the plant) | 5 (5=91% damage—death of the plant) | 5 (5=91% damage—death of the plant) | 5 (5=91% damage—death of the plant) | 5 (5=91% damage—death of the plant) | 5 (5=91% damage—death of the plant) | 5 (5=91% damage—death of the plant) |  | 5 (5=91% damage—death of the plant) | 5 (5=91% damage—death of the plant) | 5 (5=91% damage—death of the plant) | 5 (5=91% damage—death of the plant) | 5 (5=91% damage—death of the plant) |  | 5 (5=91% damage—death of the plant) | 192 |
